These results are taken from patent US5459160A, “Iridoid derivatives and the use thereof as a drug” (Tsumura & Co., priority 1990, dated 1995).

Data set [1] deals with hyperlipemia. Kind of data set: Anti-hyperlipemia test in rats on high fat food (Experimental Example 4). The note with it: peroral once a day, two weeks, control 100, Table 5. The class given is in vivo, Male Wistar rats. From the text:
Male Wistar rats 6.5 weeks old were allowed to freely intake a high fat food (0.5% cholesterol, 1.0% cholic acid, 20.0% casein, 50.5% cane sugar, 12.0% hardened coconut oil, 4.0% cellulose, 4.0% mineral mixture, 0.5% vitamine mixture, 7.5% white fish meal) in the course of two weeks so as to cause the outbreak of hyperlipemia. The dose of the drug was started simultaneously with the application of the high fat food, and was perorally given once a day through a stomach tube until the end of the experiment. The drugs were all suspended in a cane sugar fatty acid ester and were administered. The oily compounds were adjusted in advance to 100 mg/m.iota. by diethyl ether. A suitable amount was collected at the time of the dose and after diethyl ether was evaporated and removed, it was suspended in a cane sugar fatty acid ester (1% ryoto sugar ester) and was then given. After the final dose of the drug, the rats were fasted for about 18 hours, and the blood was sampled to measure the blood serum lipid. The blood serum lipid was measured by using a TBA-380 bio-chemical analyzer (a product of Toshiba Medical Co.,) unless a particular hindrance occurred.

A short description of data set [2]: Acute toxicity test. Conditions: mouse, in vivo, ip; male S.P.P. mice, abdominally administered; Table 11. How it is done:
The acute toxicity test was carried out by abdominally administering each test drug to male S.P.P. mice and determining an LD50 value.

Data set [3] concerns bile secretion. Kind of data set: Cholagogic action, bile secretion (Experimental Example 5). Conditions: intraduodenal. The data set is classed as in vivo, male Wistar rats. The procedure: After male Wistar rats 7 weeks old were fasted for 24 hours, they were anesthetized by the interperitoneal administration of 1.25 g/kg (volume 2 m.iota./kg) of urethane. A polyethylene canula (SP-10, a product of Natsume Seisakusho) was inserted into a bile duct and after the bile was caused to flow out for 30 minutes, the bile was collected in the cource of 1 hour. Thereafter, each test drug was suspended or dissolved in a 1% aqueous Tween-80 solution, and was administered into the duodenum at a rate of 5 m.iota./kg. Furthermore, the bile was collected every hour in the course of five hours, and its weight was measured. Only a 1% Tween-80 solution was given as a control.
The results are tabulated in Tables 6, 7, 8, 9 and 10, wherein the bile secretion amount every hour was represented by a percentage with the bile secretion amount (mg) one hour before the dose of the test drug being 100.

The subject of data set [4] is hyperlipemia. Kind of data set: Anti-hyperlipemia test in rats on high fat food (Experimental Example 1). The data set is classed as in vivo, Male Wistar rats. The note with it: peroral once a day, two weeks, control 100, Table 1. From the text:
Male Wistar rats 6.5 weeks old were allowed to freely intake a high fat food (containing 1% of cholesterol, 0.5% of sodium cholate, 12% of beef tallow and 20% of standard chow) in the cource of two weeks, to thus cause an outbreak of hyperlipemia. The dose of the drug was started simultaneously with the application of the high fat food, and was perorally given once a day through a stomach tube until the end of the experiment. The drugs were all suspended in a cane sugar fatty acid ester and were administered. The oily compounds were adjusted in advance to 100 mg/m.iota. by diethyl ether. A suitable amount was collected at the time of the dose and after diethyl ether was evaporated and removed, it was suspended in a cane sugar fatty acid ester (1% ryoto sugar ester) and then given. After the final dose of the drug, the rats were fasted for about 18 hours, and the blood was sampled to measure the blood serum lipid. The blood serum lipid was measured by using a TBA-380 biochemical analyzer (a product of Toshiba Medical Co.,) unless a particular hindrance occurred.

The test system of data set [5] is cholesterol synthesis in liver slices. Kind of data set: Cholesterol synthesis from [1-14C] acetic acid in liver slices (Experimental Example 2). The data set is classed as cell-based, male Wistar rats. The note with it: drug final concentration 0.1-1.0 mM, 37° C., 120 minutes; control 100; Table 2. How it is done: Liver slices (0.5 mm) were prepared from male Wistar rats 5 weeks old acclimated for 10 days in a bright/dark inversion raising chamber (bright period: 8:00 p.m.-8:00 a.m.). […] Incubation was carried out at 37° C. for 120 minutes in 95% oxygen and 5% carbon dioxide. The reaction was stopped by adding 1 m.iota. of 15% potassium hydroxide/ethanol, and saponification was carried out at 80° C. for 2 hours. The sterol fraction was extracted by petroleum ether and was evaporated to driness. Thereafter, 1 m.iota. of acetone/ethanol (1:1) and 1 m.iota. of 0.5% digitonine were added, and the mixture was left standing for a night at room temperature. The precipitate was collected by centrifugal separation and was washed with 2 m.iota. of acetone/ether (1:1). The precipitate was further centrifuged. After the supernatant was discarded, the precipitate was dissolved in methanol and its radioactivity was measured.

[6] abbreviates: 0-1 hour after dose, control 84.1, Table 8.
[7] abbreviates: 1-2 hour after dose, control 72.5, Table 8.
Setting [8] is: 2-3 hour after dose, control 63.8, Table 8.
The mark [9] stands for this setting: 3-4 hour after dose, control 56.7, Table 8.
The mark [10] stands for this setting: 4-5 hour after dose, control 51.2, Table 8.
Setting [11] is: 0-1 hour after dose, control 82.9, Table 10.
Where [12] appears, read: 1-2 hour after dose, control 74.1, Table 10.
Where [13] appears, read: 2-3 hour after dose, control 66.1, Table 10.
The mark [14] stands for this setting: 3-4 hour after dose, control 59.8, Table 10.
Setting [15] is: 4-5 hour after dose, control 53.3, Table 10.

By LD50 is commonly meant the dose expected to kill half of the subjects tested. Low values mean a more toxic substance, high ones a less toxic substance.

As to `COC(=O)C1=COC(O)[C@@H]2C(C)=CC[C@H]12` (stereo partly drawn) [Definite Example 9, methyl (4aS, 7aS)-1,4a, 5,7a-tetrahydro-1-hydroxy-7-methylcyclopenta[c]pyran-4-carboxylate], the “Blood serum cholesterol (%)” value was determined as 70.8% in data set [1] (10 mg/kg), 62.8% in data set [1] (30 mg/kg), 93.6% in data set [4] (10 mg/kg) and 59.3% in data set [4] (30 mg/kg). Besides, the LD50 in data set [2] amounted to 407 mg/kg. Also, the “Bile secretion amount, percentage of the hour before dose” value (“Bile secretion amount, percentage” below) in data set [3] (setting [6]) was determined as 134.5%; in data set [3] (setting [7]) it was 90.9%; in data set [3] (setting [8]), 76.5%; in data set [3] (setting [9]) it was 66.7%; in data set [3] (setting [10]) it was 59.4%. Also, the results for the “Blood serum triglyceride (%)” value in data set [4] (10 mg/kg) and in data set [4] (30 mg/kg) were 74.5% and 60.0%, respectively.

As for `COC(=O)C1=CO[C@@H](OC(C)=O)[C@@H]2C(C)=CC[C@H]12` [Definite Example 38, methyl (1S, 4aS, 7aS)-1-acetoxy-1,4a, 5,7a-tetrahydro-7-methylcyclopenta[c]pyran-4-carboxylate], the “Relative amount of synthesized cholesterol (%)” value (from here on “Relative amount … (%)”) in data set [5] turned out to be 72.8%.

Take `COC(=O)C1=COC(=O)[C@@H]2[C@H](C)CC[C@H]12` [Definite Example 32, methyl (4aS, 7R, 7aR)-1,4a, 5,6,7,7a-hexahydro-7-methyl-1-oxocyclopenta[c]pyran-4-carboxylate]: the “Bile secretion amount, percentage” value in data set [3] (setting [11]) came out at 110.7%; in data set [3] (setting [12]), 80.6%; in data set [3] (setting [13]), 66.2%; in data set [3] (setting [14]), 55.6%; in data set [3] (setting [15]), 49.6%. The “Relative amount … (%)” value in data set [5] was 96.2%.

Take `COC(=O)C1=COC(O)[C@H]2[C@@H]1CC[C@@H]2C` (stereo partly drawn) [Definite Example 4, methyl (4aS, 7S, 7aR)-1,4a, 5,6,7,7a-hexahydro-1-hydroxy-7-methylcyclopenta[c]pyran-4-carboxylate]: the “Blood serum cholesterol (%)” value came out at 85.3% in data set [1] (10 mg/kg), 75.0% in data set [1] (30 mg/kg), 73.3% in data set [4] (10 mg/kg) and 75.4% in data set [4] (30 mg/kg). The “Bile secretion amount, percentage” value came out at 146.9% in data set [3] (0-1 hour after dose, control 82.9, Table 6); 150.8% in data set [3] (setting [6]); 93.7% in data set [3] (setting [7]); 97.8% in data set [3] (1-2 hour after dose, control 74.1, Table 6); 74.0% in data set [3] (setting [8]); 85.4% in data set [3] (2-3 hour after dose, control 66.1, Table 6). For the same compound, the “Bile secretion amount, percentage” value is listed as 63.9% in data set [3] (setting [9]); 77.2% in data set [3] (3-4 hour after dose, control 59.8, Table 6); 57.2% in data set [3] (setting [10]); 71.8% in data set [3] (4-5 hour after dose, control 53.3, Table 6). Besides, the “Blood serum triglyceride (%)” value in data set [4] (10 mg/kg) turned out to be 86.0%; in data set [4] (30 mg/kg), 91.0%.

In data set [2], `COC(=O)C1=CO[C@@H](OC(C)=O)[C@H]2[C@@H]1CC1OCC12OC(C)=O` (stereo partly drawn) [Definite Example 30, methyl (iS, 4aS, 7aS)-1,7-diacetoxy-6,7-(epoxymethano)-1,4a, 5,6,7,7a-hexahydrocyclopenta[c]pyran-4-carboxylate] returned an LD50 of 468 mg/kg. For the same compound, the “Bile secretion amount, percentage” value in data set [3] (setting [11]) stood at 97.9%; in data set [3] (setting [12]) it was 83.1%; in data set [3] (setting [13]), 69.7%; in data set [3] (setting [14]), 61.0%; in data set [3] (setting [15]), 53.9%. In addition, the “Relative amount … (%)” value in data set [5] is on record as 50.1%.

Compound `CC(=O)O[C@@H]1OC=C(CO)[C@H]2CC=C(CO)[C@@H]12` [Definite Example 27, (1S, 4aS, 7aS)-1-acetoxy-4,7-bis(hydroxymethyl)-1,4a, 5,7a-tetrahydrocyclopenta[c]pyran] showed an LD50 in data set [2] of 473 mg/kg. Also, the “Bile secretion amount, percentage” value amounted to 98.3% in data set [3] (setting [11]); 75.3% in data set [3] (setting [12]); 59.0% in data set [3] (setting [13]); 48.7% in data set [3] (setting [14]); 43.5% in data set [3] (setting [15]). In data set [5], the “Relative amount … (%)” value is 73.5%.
